Results as given in patent US7749534B2, “Pharmaceutical composition comprising oxoplatin, the salts and derivatives thereof” (Riemser Arzneimittel AG, priority 2003, dated 2010).

Tests used:
panel of cell lines = experiment: Cytotoxic activity of TRAXO, summary over 19 cell lines; type: cell-based, human; details: for sensitivity of cell lines: T-47D and BxPC3
Method: trans-Oxoplatin was tested on a panel of cell lines, using double steps and an initial concentration of 40 μg/ml. As the IC50 values were not reached in most cases, cell survival at the highest concentration is indicated.
Cell lines sensitive to cis-oxoplatin, such as T-47D and BxPC3, are non-sensitive to TRAXO. The salts of the trans-oxoplatin compounds may have a different therapeutic potential and different effectiveness against particular human cancer cells, cell lines and tumors.

BT20 Breast = experiment: Formazan test, cis-oxoplatin vs cis-oxoplatin Ca; type: cell-based, human; details: Table 4, formazan test
Method: (§1) The effect of cis-oxoplatin Ca and cis-oxoplatin was compared on 10 cell lines (Table 4).
(§2) (IC50 values specified in μg/ml; the test was performed as a formazan test).

BxPC3 Pancreas = experiment: Formazan test, cis-oxoplatin vs cis-oxoplatin Ca; type: cell-based, human; details: Table 4, formazan test
Method: as §1, §2

CRO2B Carcinoid = experiment: Formazan test, cis-oxoplatin vs cis-oxoplatin Ca; type: cell-based, human; details: Table 4, formazan test
Method: as §1, §2

CaCo-2 Colon = experiment: Formazan test, cis-oxoplatin vs cis-oxoplatin Ca; type: cell-based, human; details: Table 4, formazan test
Method: as §1, §2

Colo205 Colon = experiment: Formazan test, cis-oxoplatin vs cis-oxoplatin Ca; type: cell-based, human; details: Table 4, formazan test
Method: as §1, §2

Du145 Prostate = experiment: Formazan test, cis-oxoplatin vs cis-oxoplatin Ca; type: cell-based, human; details: Table 4, formazan test
Method: as §1, §2

HT29 Colon = experiment: Formazan test, cis-oxoplatin vs cis-oxoplatin Ca; type: cell-based, human; details: Table 4, formazan test
Method: as §1, §2

MDA-MB-435 Breast = experiment: Formazan test, cis-oxoplatin vs cis-oxoplatin Ca; type: cell-based, human; details: Table 4, formazan test
Method: as §1, §2

SW480 Colon = experiment: Formazan test, cis-oxoplatin vs cis-oxoplatin Ca; type: cell-based, human; details: Table 4, formazan test
Method: as §1, §2

T47D Breast = experiment: Formazan test, cis-oxoplatin vs cis-oxoplatin Ca; type: cell-based, human; details: Table 4, formazan test
Method: as §1, §2

various human cell lines = experiment: Growth inhibition tests, overall comparison (Table 1 panel); type: cell-based
Method: (§3) Growth inhibition tests on various human cell lines show the different activities of cisplatin, cis-oxoplatin and oxaliplatin. […] The following Table illustrates the results produced with cisplatin, oxoplatin, carboplatin and oxaliplatin (the values specified are IC50 values in μg/ml, i.e., the concentration where 50% of the cells survive, nd=not determined; res=resistant=non-sensitive or IC50 value cannot be determined at a concentration of up to 40 μg/ml; IC=inhibition concentration).

[1] = system: HT29, SW480, SK-OV4, PC3, SIM, CaCo-2, DU145 and CRO2B cells; experiment: Growth inhibition, cis-oxoplatin vs sodium salt, summary over cell lines (Table 2); type: cell-based, human; details: CaCo-2, DU145, CRO2B
Method: as §3
The activities differ according to the cell line.

[2] = Platinum in the kidneys after injection; type: in vivo; details: 20 days after injection
From the text: A pharmaceutical agent comprising cis-diammoniumdichloro-trans-dihydroxoplatinum(IV) and/or its salts or derivatives incorporated in the base materials defined according to the invention enables effective treatment of tumors. […] In a particularly preferred fashion, salts are used, especially potassium, lithium, sodium, magnesium, barium, zinc, manganese, silver, copper, vanadium or calcium salts, wherein the anions can be e.g. chlorides, sulfates, phosphates, nitrates or carbonates or others. Other elements capable of forming salts are well-known to those skilled in the art, e.g. all elements from the main groups I to V of the Periodic Table of the Elements, as well as the elements from the subgroups I to VIII; all of the above-mentioned elements of the Periodic Table of the Elements can form cis-oxoplatinum salts.

trypsin = target: T1, trypsin (Bos taurus, UniProt P00760); experiment: Protease inhibition; type: biochemical; details: at concentrations comparable to cisplatin
T1 construct: gene PRSS1
T1 sequence (P00760 24-246): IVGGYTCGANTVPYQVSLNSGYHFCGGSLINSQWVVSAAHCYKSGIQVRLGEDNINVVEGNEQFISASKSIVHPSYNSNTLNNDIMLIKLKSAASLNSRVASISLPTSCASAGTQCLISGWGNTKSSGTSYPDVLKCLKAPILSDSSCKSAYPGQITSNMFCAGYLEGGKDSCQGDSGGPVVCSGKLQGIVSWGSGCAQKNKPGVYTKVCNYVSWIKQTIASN
From the text: (§4) The pharmaceutical agents according to the invention, which can be produced using said kit, are capable of binding directly to a DNA. The cis-platinum compounds according to the invention have an octahedral configuration. Consequently, cis-oxoplatin in the meaning of the invention can form both intra- and inter-strand DNA complexes. Due to the specific structure of cis-oxoplatin, in contrast to cisplatin, the compounds of the invention form multiple bonds with DNA strands. Owing to the inter-strand-crosslinker complexes and intra-strand-crosslinker complexes, the compounds of the invention show advantageous specific cytostatic effects in anti-tumor therapy. The DNA adducts of the compounds according to the invention show higher charge of the platinum central atom and further have two additional ligands bound to this center. […] Potency and effectiveness of the inventive pharmaceutical agents comprising cis-oxo-platinum(IV) are largely independent of the form of application of the agents. The agents can be administered perorally, orally, rectally, subcutaneously, intramuscularly, intravenously and intraperitoneally.

α-chymotrypsin = experiment: Protease inhibition; type: biochemical; details: at concentrations comparable to cisplatin
From the text: as §4

[3] = system: tumor rats developing both internal and external tumors; experiment: Therapeutic effect of tablets, ointments and infusion solutions in tumor rats; type: in vivo
Method: In a first test series, tablets, ointments and infusion solutions were tested on various tumor rats developing both internal and external tumors. The other drugs according to the invention were tested in additional, subsequent test series. […] In a preparation of 5 mg/ml solution, the infusion solution included 5 mg of cis-oxoplatin, 9 mg of benzyl alcohol, 2 mg of Polysorbate 80, 650 mg of 70% sorbitol solution, and 500 mg of water.
The tablets were administered in the form of a feed admixture. Infusion of the infusion solution was effected according to common laboratory practice via infusion tube.
Tumor effectiveness was established by weight determination and measuring the outer areas of degenerate tissue. As a comparison, the tumor effectiveness was also tested using an infusion solution comprising oxoplatin in sodium chloride solution and by means of direct oral administration of oxoplatin and by applying oxoplatin powder placed on the tumor area on the back of the laboratory animal by means of a bandage. Furthermore, tablets comprising cis-oxoplatin and sodium hydrogen carbonate or sodium alginate were tested.

10 cell lines = experiment: Formazan test, mean over 10 cell lines (Table 4); type: cell-based, human; details: mean ±SEM over the 10 cell lines of Table 4
Method: as §1, §2

| SMILES | sensitivity of cell lines (panel of cell lines) | IC50 (BT20 Breast) | IC50 (BxPC3 Pancreas) | IC50 (CRO2B Carcinoid) | IC50 (CaCo-2 Colon) | IC50 (Colo205 Colon) | IC50 (Du145 Prostate) | IC50 (HT29 Colon) | IC50 (MDA-MB-435 Breast) | IC50 (SW480 Colon) | IC50 (T47D Breast) | level of platinum compound in the kidneys [2] | also measured |
| --- | --- | --- | --- | --- | --- | --- | --- | --- | --- | --- | --- | --- | --- |
| [NH2][Pt]([NH2])([OH])([OH])([Cl])[Cl] [TRAXO, trans-Oxoplatin] | non-sensitive |  |  |  |  |  |  |  |  |  |  |  | activity against cell lines (panel of cell lines; SW 620, G-292, HOS, ACHN, HL-60, WI-38): considerable activity |
| N.N.[Cl-].[Cl-].[OH-].[OH-].[Pt+4] [cis-Oxoplatin, cis-diammoniumdichloro-trans-dihydroxoplatinum(IV)] | sensitive | 3.75 µg/mL | 26.0 µg/mL | 3.0 µg/mL | 1.52 µg/mL | 29.0 µg/mL | 19.0 µg/mL | 13.5 µg/mL | 16.5 µg/mL | 8.2 µg/mL | 2.5 µg/mL | largely free of said compound | activity compared with oxaliplatin and carboplatin (various human cell lines): activity similar to that of oxaliplatin, but higher activity than carboplatin; IC50 values of these cells (mean) [1]: 10.5 ± 6.4 µg/mL; inhibition of proteases (trypsin): does not inhibit; inhibition of proteases (α-chymotrypsin): does not inhibit; elimination [3]: rapidly eliminated; irritations in the surrounding tissue [3]: irritations in the surrounding tissue; tumor growth ([3]; no base materials): reduction of tumor growth |
| N.N.N.N.[Ca+2].[O-][Pt]([OH])([Cl])[Cl].[O-][Pt]([OH])([Cl])[Cl] [Oxoplatin Ca, cis-oxoplatin calcium salt] |  | 3.5 µg/mL | 30.0 µg/mL | 2.20 µg/mL | 0.87 µg/mL | 13.5 µg/mL | 14.5 µg/mL | 8.0 µg/mL | 12.0 µg/mL | 2.5 µg/mL | 3.6 µg/mL |  | IC50 (±SEM) mean value for all cell lines (10 cell lines): 9.1 ± 2.8 µg/mL |
| N.N.[Cl][Pt][Cl] [Cis-platin, cisplatin, reference compound] |  |  |  |  |  |  |  |  |  |  |  | approximately as high as one hour following injection |  |
